This passage reports GI50 and TGI results from PubChem BioAssay (NCI).

Where “and” joins values, the source holds several entries; their conditions need not be identical. Equal values may be shown once.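 Compound exposure: 48 hours, 5 concentrations, 96-well plates. GI50 = concentration required for 50% inhibition of growth. TGI: concentration producing complete growth inhibition.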

Some test systems named below: 786-0 renal; DU-145 prostate; MALME-3M melanoma; NCI-H23 lung; OVCAR-4 ovarian; SF-268 CNS; SNB-19 CNS; T-47D breast; TK-10 renal; UACC-62 melanoma.
What all share (test): NCI tumour cell line growth inhibition, 48 h

As to `COc1cc(-c2nc(-c3ccc(-c4nc5ccc(F)cc5[nH]4)cc3)no2)cc(OC)c1OC`, the GI50 is 3.61 µM in the experiment with 786-0 renal; 3.96 µM with DU-145 prostate; 2.32 µM in the experiment on MALME-3M melanoma; 2.5 µM in the experiment with NCI-H23 lung; 2.82 µM in the experiment on OVCAR-4 ovarian; 3.99 µM with SF-268 CNS. The GI50 in the experiment with SNB-19 CNS is 5.62 µM; in the experiment with T-47D breast it was 2.72 µM; in the experiment on TK-10 renal, 8.27 µM; in the experiment on UACC-62 melanoma, 2.35 µM. The TGI with 786-0 renal is 17.9 µM; in the experiment with DU-145 prostate, 15.3 µM; in the experiment with MALME-3M melanoma, 6.52 µM; in the experiment with NCI-H23 lung, 8.35 µM; in the experiment on OVCAR-4 ovarian it was 11.3 µM; in the experiment with SF-268 CNS, 32.4 µM. In addition, the TGI with SNB-19 CNS is more than 100 µM; in the experiment on T-47D breast, 7.46 µM; in the experiment with TK-10 renal, 34.1 µM; in the experiment on UACC-62 melanoma it was 6.61 µM.
As for `Fc1ccc([C@@H]2CCNC[C@H]2COc2ccc3c(c2)OCO3)cc1`, the GI50 in the experiment on 786-0 renal was 12.3 µM; in the experiment on DU-145 prostate, 13.1 µM; with MALME-3M melanoma, 2.68 µM; with NCI-H23 lung it was 15.4 µM; with OVCAR-4 ovarian it was 10.6 µM; in the experiment with SF-268 CNS it was 10.8 µM. For the same compound, the GI50 was 12 µM with SNB-19 CNS, 5.53 µM in the experiment on T-47D breast, 11.3 µM in the experiment with TK-10 renal and 5.52 µM with UACC-62 melanoma. The TGI with 786-0 renal is 25.7 µM; with DU-145 prostate it was 26.5 µM; in the experiment with MALME-3M melanoma it was 6.12 µM; with NCI-H23 lung, 32.5 µM; in the experiment on OVCAR-4 ovarian it was 23.1 µM; in the experiment on SF-268 CNS, 23.5 µM. Moreover, the TGI in the experiment on SNB-19 CNS turned out to be 25.4 µM; in the experiment with T-47D breast it was 20.4 µM; in the experiment with TK-10 renal, 23.8 µM; in the experiment on UACC-62 melanoma, 18.8 µM.
In the case of `CN(C)c1ccc2cc3ccc(N(C)C)cc3nc2c1`, the TGI in the experiment on 786-0 renal is 2.26 µM; in the experiment on DU-145 prostate, 4.29 µM; in the experiment with MALME-3M melanoma it was 10.1 µM; in the experiment on NCI-H23 lung it was 6.17 µM; in the experiment with OVCAR-4 ovarian, 3.37 µM; in the experiment with SF-268 CNS it was 6.26 µM. Also, the TGI in the experiment on SNB-19 CNS was found to be 3.95 µM; in the experiment on T-47D breast it was 36.4 µM; in the experiment with TK-10 renal it was 9.21 µM; in the experiment on UACC-62 melanoma, 28.2 µM.
Take `c1ccc2cc(C[n+]3ccn(Cc4ccc5ccccc5n4)c3)ccc2c1`: the GI50 in the experiment with 786-0 renal was 2.73 µM and 10.6 µM; in the experiment on MALME-3M melanoma, 0.235 µM and 1.36 µM; in the experiment with NCI-H23 lung it was 0.311 µM and 2.7 µM; in the experiment on OVCAR-4 ovarian it was 0.26 µM and 1.43 µM; in the experiment with SF-268 CNS it was 0.434 µM and 3.79 µM; with SNB-19 CNS it was 0.338 µM and 3.05 µM. The GI50 with T-47D breast was 0.239 µM and 2.32 µM; with TK-10 renal, 1.71 µM and 10.4 µM; with UACC-62 melanoma, 0.374 µM and 1.91 µM. Moreover, the TGI was 13 µM and 24.8 µM with 786-0 renal; 12.4 µM and 22.4 µM in the experiment on DU-145 prostate; 0.811 µM and 6.35 µM in the experiment with MALME-3M melanoma; 3.23 µM and 14.6 µM in the experiment on NCI-H23 lung; 4.8 µM and 15.2 µM in the experiment with OVCAR-4 ovarian; 11.3 µM and 18.3 µM in the experiment on SF-268 CNS. In addition, the TGI with SNB-19 CNS is 11 µM and 13.2 µM; in the experiment with TK-10 renal it was 6.47 µM and 23.8 µM; in the experiment with UACC-62 melanoma, 1.5 µM and 5.94 µM.
`COc1ccc(/C=N\NC(=O)c2ccc3nc(-c4ccc(Cl)cc4)[nH]c3c2)cc1`: the GI50 in the experiment on 786-0 renal is 1.93 µM; in the experiment with DU-145 prostate it was 1.98 µM; in the experiment on MALME-3M melanoma, 1.67 µM; with NCI-H23 lung it was 2.74 µM; in the experiment with OVCAR-4 ovarian it was 1.79 µM; with SF-268 CNS, 2.09 µM. The GI50 in the experiment with SNB-19 CNS was 3.13 µM; in the experiment on T-47D breast, 1.94 µM; in the experiment on TK-10 renal, 2.95 µM; in the experiment with UACC-62 melanoma, 1.94 µM. The TGI was 3.67 µM with 786-0 renal; 4.61 µM in the experiment on DU-145 prostate; 3.63 µM with MALME-3M melanoma; 11.2 µM with NCI-H23 lung; 3.36 µM in the experiment with OVCAR-4 ovarian; 5.1 µM in the experiment on SF-268 CNS. In addition, the TGI was 7.95 µM with SNB-19 CNS, 4.83 µM in the experiment with T-47D breast, 6.59 µM in the experiment with TK-10 renal and 4.47 µM in the experiment with UACC-62 melanoma.
Regarding `CN1CCN(c2ccc3nc(-c4[nH]ncc4Nc4ncnc5c4OCCCN5)[nH]c3c2)CC1`, the GI50 in the experiment with 786-0 renal is less than 0.0119 µM; with DU-145 prostate, less than 0.0118 µM; in the experiment on MALME-3M melanoma it was 0.0185 µM; in the experiment with NCI-H23 lung it was less than 0.0109 µM; in the experiment with OVCAR-4 ovarian, 0.0162 µM; in the experiment with SF-268 CNS, less than 0.0112 µM. For the same compound, the GI50 in the experiment with SNB-19 CNS was 0.0106 µM; in the experiment on T-47D breast it was 0.0129 µM; in the experiment with TK-10 renal, 0.0166 µM; in the experiment with UACC-62 melanoma it was 0.0103 µM. Further, the TGI with 786-0 renal was 0.0944 µM; in the experiment with DU-145 prostate, 0.482 µM; in the experiment with MALME-3M melanoma, 0.0633 µM; in the experiment on NCI-H23 lung it was 0.0726 µM; in the experiment on OVCAR-4 ovarian, 0.104 µM; with SF-268 CNS it was 0.049 µM. In addition, the TGI in the experiment on SNB-19 CNS stood at 0.172 µM; with T-47D breast it was 0.155 µM; with TK-10 renal, 0.0576 µM; in the experiment with UACC-62 melanoma it was 0.0529 µM.
For the compound `CN(C)c1ccc(Nc2c3ccccc3nc3cc(NC(=O)CCN4CCCC4)ccc23)cc1`, the GI50 was 0.343 µM with 786-0 renal; 0.155 µM with DU-145 prostate; 1.12 µM with MALME-3M melanoma; 0.29 µM in the experiment with NCI-H23 lung; 0.57 µM with OVCAR-4 ovarian; 0.473 µM with SF-268 CNS. The GI50 in the experiment on SNB-19 CNS is 0.305 µM; in the experiment on T-47D breast, 0.455 µM; in the experiment with TK-10 renal it was 1.13 µM; in the experiment with UACC-62 melanoma it was 0.774 µM. Besides, the TGI turned out to be 1.38 µM in the experiment on 786-0 renal; 1.19 µM with DU-145 prostate; 2.41 µM in the experiment on MALME-3M melanoma; 1.35 µM in the experiment with NCI-H23 lung; 2.16 µM with OVCAR-4 ovarian; 1.88 µM in the experiment on SF-268 CNS. In addition, the TGI in the experiment with SNB-19 CNS was determined as 1.64 µM; in the experiment on T-47D breast, 2.43 µM; with TK-10 renal, 3 µM; in the experiment with UACC-62 melanoma, 2.11 µM.
For `COc1ccc(C(=O)/C=C/c2cc(-c3ccc4c(c3)OCO4)n[nH]2)cc1OC`, the GI50 was 3.12 µM with 786-0 renal; 1.87 µM in the experiment on DU-145 prostate; 7.32 µM in the experiment on MALME-3M melanoma; 4.12 µM with NCI-H23 lung; 2.11 µM in the experiment on OVCAR-4 ovarian; 2.53 µM in the experiment on SF-268 CNS. Also, the GI50 is 3.2 µM in the experiment with SNB-19 CNS, 3.23 µM with T-47D breast, 2.88 µM in the experiment with TK-10 renal and 4.1 µM in the experiment with UACC-62 melanoma. Also, the TGI was determined as 11.4 µM with 786-0 renal; 4.27 µM in the experiment with DU-145 prostate; 22.8 µM with MALME-3M melanoma; 19.6 µM in the experiment on NCI-H23 lung; 40.3 µM in the experiment with OVCAR-4 ovarian; 7.61 µM with SF-268 CNS. Also, the TGI in the experiment with SNB-19 CNS worked out at 15.2 µM; with T-47D breast it was 26.1 µM; with TK-10 renal, 8.97 µM; in the experiment on UACC-62 melanoma, 14.8 µM.
